Experimental data: patent US10294234B2, “HIV inhibitor compounds” (priority 2017, dated 2019)
pEC50: −log10 of the molar value. Read-outs that look alike come from different tables or passages of the source. Values belong to the molecule of their own block, whether it stands above or below them.

Key:
[1] = tested on: HIV-1 (IIIB) in MT-4 cells; test: MT-4 HIV assay; format: cell-based; details: Human immunodeficiency virus 1, MT4, 120 h
In short: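 Antiviral activity was read by Cell Titer Glo after a 5-day, 37 °C culture of MT-4 cells pre-infected with a 1:250 dilution of HIV-1 (IIIB). Compounds were tested as threefold dilution series in complete RPMI. Controls were no drug, mock infection and 5 uM AZT.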

in vivo = details: rat, in vivo; for Vd / RAT PO F: male, SD; for Vd / RAT IV CL / RAT IV T1/2: iv; for RAT PO F: 2.5 mg/kg
Description: Each dosing group consisted of 3 male naïve SD Rats. At dosing, the animals weighed between 0.27 to 0.32 kg. The animals were fasted overnight prior to dose administration. The test article was administered by intravenous infusion over 30 min. The rate of infusion was adjusted according to the body weight of each animal to deliver a dose of 0.5 or 1.0 mg/kg. For the oral dosing group, the test article was administered to animals by oral gavage administration. Serial venous blood samples (approximately 0.30 mL each) were taken at predose and 0.25, 0.48, 0.58, 0.75, 1.5, 3, 6, 8, 12 and 24 hours post dose for the IV dosing group animals. Blood samples were taken at predose, 0.25, 0.50, 1, 2, 4, 6, 8, 12 and 24 hours post dose for the oral group animals. The blood samples were collected into Vacutainer™ tubes containing EDTA-K2 as the anti-coagulant and were immediately placed on wet ice pending centrifugation for plasma. An LC/MS/MS method was used to measure the concentration of test compound in plasma. Non-compartmental pharmacokinetic analysis was performed on the plasma concentration-time data.

[2] = In short: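 LC/MS/MS read-out of parent compound remaining; in vitro t1/2 converted to Clint. Incubation: 1 uM compound, 0.5 mg/mL dog/rat/human liver microsomes, NADPH-regenerating system, duplicate sets, time-points 2–65 minutes.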
[3] = HIV-1 (IIIB), MT-4 cells, 5 days, Cell Titer Glo, read-out: EC50

SMILES: COC(=O)N[C@H](C(=O)N[C@@H](Cc1ccc(C#Cc2cnc(N3CC4CCC(C3)N4C3COC3)nc2)cc1)[C@@H](O)CN(Cc1c(F)cc(-c2cnn(C(F)F)c2)cc1F)NC(=O)[C@@H](NC(=O)OC)C(C)(C)C(F)(F)F)C(C)(C)C(F)(F)F [Example 61, Methyl ((5S,8S,9S,14S)-11-(4-(1-(difluoromethyl)-1H-pyrazol-4-yl)-2,6-difluorobenzyl)-16,16,16-trifluoro-9-hydroxy-15,15-dimethyl-8-(4-((2-(8-(oxetan-3-yl)-3,8-diazabicyclo[3.2.1]octan-3-yl)pyrimidin-5-yl)ethynyl)benzyl)-3,6,13-trioxo-5-(1,1,1-trifluoro-2-methylpropan-2-yl)-2-oxa-4,7,11,12-tetraazahexadecan-14-yl)carbamate]
- pEC50 [1, 3]: 8.39
- Vd (in vivo): 6.5 L/kg
- RAT PO F (in vivo): 18.5%
- RAT IV CL (in vivo): 7.17 mL/min/kg
- RAT IV T1/2 (in vivo): 12.9 h
- Human Pred Cl. ([2]; human, microsomes): <0.11 L/H/kg
- Rat. Pred. Cl. ([2]; rat, microsomes): <0.18 L/H/kg

SMILES: COC(=O)N[C@H](C(=O)N[C@@H](Cc1ccc(C#Cc2ccc(N3CC4CCC(C3)N4C3COC3)nc2)cc1)[C@@H](O)CN(Cc1c(F)cc(-c2cn(C(F)F)cn2)cc1F)NC(=O)[C@@H](NC(=O)OC)C(C)(C)C(F)(F)F)C(C)(C)C(F)(F)F [Example 79, Methyl ((5S,8S,9S,14S)-11-(4-(1-(difluoromethyl)-1H-imidazol-4-yl)-2,6-difluorobenzyl)-16,16,16-trifluoro-9-hydroxy-15,15-dimethyl-8-(4-((6-(8-(oxetan-3-yl)-3,8-diazabicyclo[3.2.1]octan-3-yl)pyridin-3-yl)ethynyl)benzyl)-3,6,13-trioxo-5-(1,1,1-trifluoro-2-methylpropan-2-yl)-2-oxa-4,7,11,12-tetraazahexadecan-14-yl)carbamate]
- pEC50 [1, 3]: 8.45
- Vd (in vivo): 4.07 L/kg
- RAT PO F (in vivo): 13.1%
- RAT IV CL (in vivo): 12.8 mL/min/kg
- RAT IV T1/2 (in vivo): 5.13 h
- Human Pred Cl. ([2]; human, microsomes): <0.11 L/H/kg
- Rat. Pred. Cl. ([2]; rat, microsomes): <0.18 L/H/kg

SMILES: COC(=O)N[C@H](C(=O)N[C@@H](Cc1ccc(C#Cc2ccc(N3CC4CCC(C3)N4C3COC3)nc2)cc1)[C@@H](O)CN(Cc1ccc(-c2ccccn2)cc1)NC(=O)[C@@H](NC(=O)OC)C(C)(C)C(F)(F)F)C(C)(C)C(F)(F)F [Example 56, Methyl ((5S,8S,9S,14S)-16,16,16-trifluoro-9-hydroxy-15,15-dimethyl-8-(4-((6-(8-(oxetan-3-yl)-3,8-diazabicyclo[3.2.1]octan-3-yl)pyridin-3-yl)ethynyl)benzyl)-3,6,13-trioxo-11-(4-(pyridin-2-yl)benzyl)-5-(1,1,1-trifluoro-2-methylpropan-2-yl)-2-oxa-4,7,11,12-tetraazahexadecan-14-yl)carbamate]
- pEC50 [1, 3]: 8.44
- Vd (in vivo): 7.44 L/kg
- RAT PO F (in vivo): 34.1%
- RAT IV CL (in vivo): 14.2 mL/min/kg
- RAT IV T1/2 (in vivo): 8.77 h
- Dog. Pred. Cl. ([2]; microsomes): 1.47 L/H/kg
- Human Pred Cl. ([2]; human, microsomes): 0.17 L/H/kg
- Rat. Pred. Cl. ([2]; rat, microsomes): 0.19 L/H/kg

SMILES: COC(=O)N[C@H](C(=O)NN(Cc1c(F)cc(-c2ccn(C(F)F)n2)cc1F)C[C@H](O)[C@H](Cc1ccc(C#Cc2cnc(N3CC4CCC(C3)N4C3COC3)nc2)cc1)NC(=O)[C@@H](NC(=O)C1CC1)C(C)(C)C(F)(F)F)C(C)(C)C(F)(F)F [Example 221, Methyl ((2S)-1-(2-((2S,3S)-3-((S)-2-(cyclopropanecarboxamido)-4,4,4-trifluoro-3,3-dimethylbutanamido)-2-hydroxy-4-(4-((2-(8-(oxetan-3-yl)-3,8-diazabicyclo[3.2.1]octan-3-yl)pyrimidin-5-yl)ethynyl)phenyl)butyl)-2-(4-(1-(difluoromethyl)-1H-pyrazol-3-yl)-2,6-difluorobenzyl)hydrazinyl)-4,4,4-trifluoro-3,3-dimethyl-1-oxobutan-2-yl)carbamate]
- pEC50 [1, 3]: 8.35
- Vd (in vivo): 4.41 L/kg
- RAT PO F (in vivo): 19.9%
- RAT IV CL (in vivo): 5.33 mL/min/kg
- RAT IV T1/2 (in vivo): 11.5 h
- Dog. Pred. Cl. ([2]; microsomes): 0.14 L/H/kg
- Human Pred Cl. ([2]; human, microsomes): <0.11 L/H/kg
- Rat. Pred. Cl. ([2]; rat, microsomes): 0.28 L/H/kg

SMILES: COC(=O)N[C@H](C(=O)N[C@@H](Cc1ccc(C#Cc2ccc(N3CC4CCC(C3)N4C3COC3)nc2)cc1)[C@@H](O)CN(Cc1c(F)cc(-c2cc3n(n2)CCOC3)cc1F)NC(=O)[C@@H](NC(=O)OC)C(C)(C)C(F)(F)F)C(C)(C)C(F)(F)F [Example 57, Methyl ((5S,8S,9S,14S)-11-(4-(6,7-dihydro-4H-pyrazolo[5,1-c][1,4]oxazin-2-yl)-2,6-difluorobenzyl)-16,16,16-trifluoro-9-hydroxy-15,15-dimethyl-8-(4-((6-(8-(oxetan-3-yl)-3,8-diazabicyclo[3.2.1]octan-3-yl)pyridin-3-yl)ethynyl)benzyl)-3,6,13-trioxo-5-(1,1,1-trifluoro-2-methylpropan-2-yl)-2-oxa-4,7,11,12-tetraazahexadecan-14-yl)carbamate]
- pEC50 [1, 3]: 8.54
- Vd (in vivo): 2.45 L/kg
- RAT PO F (in vivo): 23.2%
- RAT IV CL (in vivo): 6 mL/min/kg
- RAT IV T1/2 (in vivo): 6.28 h
- Human Pred Cl. ([2]; human, microsomes): <0.11 L/H/kg
- Rat. Pred. Cl. ([2]; rat, microsomes): <0.18 L/H/kg

SMILES: COC(=O)N[C@H](C(=O)N[C@@H](Cc1ccc(C#Cc2ccc(N3CC4CCC(C3)N4C3COC3)nc2)cc1)[C@@H](O)CN(Cc1c(F)cc(-c2ccc(F)cn2)cc1F)NC(=O)[C@@H](NC(=O)OC)C(C)(C)C(F)(F)F)C(C)(C)C(F)(F)F [Example 102, Methyl ((5S,8S,9S,14S)-11-(2,6-difluoro-4-(5-fluoropyridin-2-yl)benzyl)-16,16,16-trifluoro-9-hydroxy-15,15-dimethyl-8-(4-((6-(8-(oxetan-3-yl)-3,8-diazabicyclo [3.2.1]octan-3-yl)pyridin-3-yl)ethynyl)benzyl)-3,6,13-trioxo-5-(1,1,1-trifluoro-2-methylpropan-2-yl)-2-oxa-4,7,11,12-tetraazahexadecan-14-yl)carbamate]
- pEC50 [1, 3]: 8.25
- Human Pred Cl. ([2]; human, microsomes): 0.18 L/H/kg
- Rat. Pred. Cl. ([2]; rat, microsomes): <0.18 L/H/kg

SMILES: COC(=O)N[C@H](C(=O)N[C@@H](Cc1ccc(C#Cc2cnc(N3CC4CCC(C3)N4C3COC3)nc2)cc1)[C@@H](O)CN(Cc1c(F)cc(-c2cn(C(F)F)nn2)cc1F)NC(=O)[C@@H](NC(=O)OC)C(C)(C)C(F)(F)F)C(C)(C)C(F)(F)F [Example 219, Methyl ((5S,8S,9S,14S)-11-(4-(1-(difluoromethyl)-1H-1,2,3-triazol-4-yl)-2,6-difluorobenzyl)-16,16,16-trifluoro-9-hydroxy-15,15-dimethyl-8-(4-((2-(8-(oxetan-3-yl)-3,8-diazabicyclo[3.2.1]octan-3-yl)pyrimidin-5-yl)ethynyl)benzyl)-3,6,13-trioxo-5-(1,1,1-trifluoro-2-methylpropan-2-yl)-2-oxa-4,7,11,12-tetraazahexadecan-14-yl)carbamate]
- pEC50 [1, 3]: 8.39
- Dog. Pred. Cl. ([2]; microsomes): 0.19 L/H/kg
- Human Pred Cl. ([2]; human, microsomes): <0.11 L/H/kg
- Rat. Pred. Cl. ([2]; rat, microsomes): 0.24 L/H/kg

SMILES: COC(=O)N[C@H](C(=O)N[C@@H](Cc1ccc(C#Cc2ccc(N3CC4CC(C3)N4C3COC3)nc2)cc1)[C@@H](O)CN(Cc1c(F)cc(-c2ccn(C3CC3)n2)cc1F)NC(=O)[C@@H](NC(=O)OC)C(C)(C)C(F)(F)F)C(C)(C)C(F)(F)F [Example 40, Methyl ((5S,8S,9S,14S)-11-(4-(1-cyclopropyl-1H-pyrazol-3-yl)-2,6-difluorobenzyl)-16,16,16-trifluoro-9-hydroxy-15,15-dimethyl-8-(4-((6-(6-(oxetan-3-yl)-3,6-diazabicyclo[3.1.1]heptan-3-yl)pyridin-3-yl)ethynyl)benzyl)-3,6,13-trioxo-5-(1,1,1-trifluoro-2-methylpropan-2-yl)-2-oxa-4,7,11,12-tetraazahexadecan-14-yl)carbamate]
- pEC50 [1, 3]: 8.41
- Human Pred Cl. ([2]; human, microsomes): 0.13 L/H/kg
- Rat. Pred. Cl. ([2]; rat, microsomes): 0.5 L/H/kg

- Human Pred Cl. ([2]; human liver microsomes 0.5 mg/mL, 1 uM compound, NADPH): 0.13 L/H/kg
- Rat. Pred. Cl. ([2]; rat liver microsomes 0.5 mg/mL, 1 uM compound, NADPH): 0.23 L/H/kg
SMILES: COC(=O)N[C@H](C(=O)N[C@@H](Cc1ccc(C#Cc2cnc(N3CCN(C4COC4)CC3)nc2)cc1)[C@@H](O)CN(Cc1c(F)cc(-c2ccn(C(F)F)n2)cc1F)NC(=O)[C@@H](NC(=O)OC)C(C)(C)C(F)(F)F)C(C)(C)C(F)(F)F [Example 87, methyl ((5S,8S,9S,14S)-11-(4-(1-(difluoromethyl)-1H-pyrazol-3-yl)-2,6-difluorobenzyl)-16,16,16-trifluoro-9-hydroxy-15,15-dimethyl-8-(4-((2-(4-(oxetan-3-yl)piperazin-1-yl)pyrimidin-5-yl)ethynyl)benzyl)-3,6,13-trioxo-5-(1,1,1-trifluoro-2-methylpropan-2-yl)-2-oxa-4,7,11,12-tetraazahexadecan-14-yl)carbamate]
- pEC50 [1]: 8.37
